Reference: ChEMBL document CHEMBL3885861, “Open TG-GATES”

Organism: Rattus norvegicus
Test: Open TG-GATES - Regimen: Daily Repeat
Type: toxicity, organism-based, Sprague-Dawley
Set-up: regimen Daily Repeat, gender Male, age 6 weeks
Details: in vivo, po, 100 mg/kg, route gavage, dose level High; for APTT / Bas / Eos / Fbg / Hb / Ht / Lym / MCH / MCHC / MCV / Mono / Neu / PT / Plat / RBC / Ret / WBC: tissue Blood; for KIDNEY_L / KIDNEY_R / KIDNEY_TOTAL: tissue Kidney; for LIVER: tissue Liver; for A/G / ALP / ALT / AST / BUN / CRE / Ca / Cl / DBIL / GLC / IP / K / LDH / Na / PL / RALB / TBIL / TC / TG / TP / gamma-GTP: tissue Plasma

CC1=C(/C=C/C(C)=C/C=C/C(C)=C/CO)C(C)(C)CCC1 [RETINOL]
TERMINAL_BW (72 h, time 3 day): 214.3 g
APTT (72 h, time 3 day): 29 s
Bas (72 h, time 3 day): 0%
Eos (72 h, time 3 day): 0.4%
Fbg (72 h, time 3 day): 274.4 mg/dL
Hb (72 h, time 3 day): 13.8 g/dL
Ht (72 h, time 3 day): 39.8%
Lym (72 h, time 3 day): 74.4%
MCH (72 h, time 3 day): 21 pg
MCHC (72 h, time 3 day): 34.6%
MCV (72 h, time 3 day): 60.9 fL
Mono (72 h, time 3 day): 3.4%
Neu (72 h, time 3 day): 20.6%
PT (72 h, time 3 day): 18.1 s
Plat (72 h, time 3 day): 112.8 x10_4/uL
RBC (72 h, time 3 day): 654.8 x10_4/ul
Ret (72 h, time 3 day): 4.3%
WBC (72 h, time 3 day): 95.3 x10_2/uL
KIDNEY_L (72 h, time 3 day): 1 g
KIDNEY_R (72 h, time 3 day): 1 g
KIDNEY_TOTAL (72 h, time 3 day): 2 g
LIVER (72 h, time 3 day): 10.3 g
A/G (72 h, time 3 day): 1.3
ALP (72 h, time 3 day): 2174.2 IU/L
ALT (72 h, time 3 day): 52.2 IU/L
AST (72 h, time 3 day): 83.8 IU/L
BUN (72 h, time 3 day): 17 mg/dL
CRE (72 h, time 3 day): 0.1 mg/dL
Ca (72 h, time 3 day): 11.1 mg/dL
Cl (72 h, time 3 day): 107 meq/L
DBIL (72 h, time 3 day): 0.004 mg/dL
GLC (72 h, time 3 day): 192.2 mg/dL
IP (72 h, time 3 day): 7.9 mg/dL
K (72 h, time 3 day): 4.3 meq/L
LDH (72 h, time 3 day): 241 IU/L
Na (72 h, time 3 day): 141.8 meq/L
PL (72 h, time 3 day): 151.2 mg/dL
RALB (72 h, time 3 day): 3.1 g/dL
TBIL (72 h, time 3 day): 0.01 mg/dL
TC (72 h, time 3 day): 70.6 mg/dL
TG (72 h, time 3 day): 196.2 mg/dL
TP (72 h, time 3 day): 5.6 g/dL
gamma-GTP (72 h, time 3 day): 1.4 IU/L
TERMINAL_BW ([…], time 7 day): 231.5 g
TERMINAL_BW ([…], time 14 day): 234.2 g
TERMINAL_BW ([…], time 28 day): 190.7 g
APTT ([…], time 7 day): 32.7 s
Bas ([…], time 7 day): 0%
Eos ([…], time 7 day): 0.2%
Fbg ([…], time 7 day): 293.8 mg/dL
Hb ([…], time 7 day): 13.6 g/dL
Ht ([…], time 7 day): 38.5%
Lym ([…], time 7 day): 73.2%
MCH ([…], time 7 day): 21.1 pg
MCHC ([…], time 7 day): 35.2%
MCV ([…], time 7 day): 60 fL
Mono ([…], time 7 day): 2.6%
Neu ([…], time 7 day): 22.4%
PT ([…], time 7 day): 16.1 s
Plat ([…], time 7 day): 114.4 x10_4/uL
RBC ([…], time 7 day): 642.2 x10_4/ul
Ret ([…], time 7 day): 2%
WBC ([…], time 7 day): 102.2 x10_2/uL
APTT ([…], time 14 day): 43.8 s
Bas ([…], time 14 day): 0%
Eos ([…], time 14 day): 0.4%
Fbg ([…], time 14 day): 373.8 mg/dL
Hb ([…], time 14 day): 13 g/dL
Ht ([…], time 14 day): 36.5%
Lym ([…], time 14 day): 62.8%
MCH ([…], time 14 day): 20.2 pg
MCHC ([…], time 14 day): 35.6%
MCV ([…], time 14 day): 56.6 fL
Mono ([…], time 14 day): 4.2%
Neu ([…], time 14 day): 31.8%
PT ([…], time 14 day): 18.5 s
Plat ([…], time 14 day): 127.2 x10_4/uL
RBC ([…], time 14 day): 644.8 x10_4/ul
Ret ([…], time 14 day): 1.3%
WBC ([…], time 14 day): 139.1 x10_2/uL
APTT ([…], time 28 day): 37 s
Bas ([…], time 28 day): 0%
Eos ([…], time 28 day): 0.5%
Fbg ([…], time 28 day): 294 mg/dL
Hb ([…], time 28 day): 12.1 g/dL
Ht ([…], time 28 day): 34.3%
Lym ([…], time 28 day): 60.5%
MCH ([…], time 28 day): 17.9 pg
MCHC ([…], time 28 day): 35.2%
MCV ([…], time 28 day): 50.8 fL
Mono ([…], time 28 day): 5%
Neu ([…], time 28 day): 33.5%
PT ([…], time 28 day): 17.8 s
Plat ([…], time 28 day): 144.9 x10_4/uL
RBC ([…], time 28 day): 673 x10_4/ul
Ret ([…], time 28 day): 2.9%
WBC ([…], time 28 day): 160.4 x10_2/uL
KIDNEY_L ([…], time 7 day): 1.1 g
KIDNEY_R ([…], time 7 day): 1.1 g
KIDNEY_TOTAL ([…], time 7 day): 2.2 g
KIDNEY_L ([…], time 14 day): 1.1 g
KIDNEY_R ([…], time 14 day): 1.1 g
KIDNEY_TOTAL ([…], time 14 day): 2.2 g
KIDNEY_L ([…], time 28 day): 1 g
KIDNEY_R ([…], time 28 day): 1.1 g
KIDNEY_TOTAL ([…], time 28 day): 2.1 g
LIVER ([…], time 7 day): 11.9 g
LIVER ([…], time 14 day): 11.2 g
LIVER ([…], time 28 day): 9.5 g
A/G ([…], time 7 day): 1
ALP ([…], time 7 day): 2413.2 IU/L
ALT ([…], time 7 day): 47.8 IU/L
AST ([…], time 7 day): 91.4 IU/L
BUN ([…], time 7 day): 16.8 mg/dL
CRE ([…], time 7 day): 0.2 mg/dL
Ca ([…], time 7 day): 11.5 mg/dL
Cl ([…], time 7 day): 104.8 meq/L
DBIL ([…], time 7 day): 0 mg/dL
GLC ([…], time 7 day): 182.6 mg/dL
IP ([…], time 7 day): 8.9 mg/dL
K ([…], time 7 day): 4.3 meq/L
LDH ([…], time 7 day): 266 IU/L
Na ([…], time 7 day): 142.6 meq/L
PL ([…], time 7 day): 162.2 mg/dL
RALB ([…], time 7 day): 2.8 g/dL
TBIL ([…], time 7 day): 0.008 mg/dL
TC ([…], time 7 day): 76.4 mg/dL
TG ([…], time 7 day): 306.2 mg/dL
TP ([…], time 7 day): 5.6 g/dL
gamma-GTP ([…], time 7 day): 1.4 IU/L
A/G ([…], time 14 day): 0.7
ALP ([…], time 14 day): 1719.6 IU/L
ALT ([…], time 14 day): 43.8 IU/L
AST ([…], time 14 day): 99.6 IU/L
BUN ([…], time 14 day): 13.6 mg/dL
CRE ([…], time 14 day): 0.2 mg/dL
Ca ([…], time 14 day): 11.3 mg/dL
Cl ([…], time 14 day): 106.2 meq/L
DBIL ([…], time 14 day): 0 mg/dL
GLC ([…], time 14 day): 186.6 mg/dL
IP ([…], time 14 day): 7.7 mg/dL
K ([…], time 14 day): 4.1 meq/L
LDH ([…], time 14 day): 212.8 IU/L
Na ([…], time 14 day): 141.8 meq/L
PL ([…], time 14 day): 136.2 mg/dL
RALB ([…], time 14 day): 2.1 g/dL
TBIL ([…], time 14 day): 0.002 mg/dL
TC ([…], time 14 day): 67.8 mg/dL
TG ([…], time 14 day): 151.8 mg/dL
TP ([…], time 14 day): 5 g/dL
gamma-GTP ([…], time 14 day): 1.2 IU/L
A/G ([…], time 28 day): 0.6
ALP ([…], time 28 day): 1327.7 IU/L
ALT ([…], time 28 day): 55.3 IU/L
AST ([…], time 28 day): 166.3 IU/L
BUN ([…], time 28 day): 52 mg/dL
CRE ([…], time 28 day): 0.3 mg/dL
Ca ([…], time 28 day): 10.5 mg/dL
Cl ([…], time 28 day): 113 meq/L
DBIL ([…], time 28 day): 0.01 mg/dL
GLC ([…], time 28 day): 225 mg/dL
IP ([…], time 28 day): 9.1 mg/dL
K ([…], time 28 day): 4.1 meq/L
LDH ([…], time 28 day): 685.3 IU/L
Na ([…], time 28 day): 148.3 meq/L
PL ([…], time 28 day): 85 mg/dL
RALB ([…], time 28 day): 1.7 g/dL
TBIL ([…], time 28 day): 0.0233 mg/dL
TC ([…], time 28 day): 43.7 mg/dL
TG ([…], time 28 day): 57.3 mg/dL
TP ([…], time 28 day): 4.4 g/dL
gamma-GTP ([…], time 28 day): 2.3 IU/L
